Test results published in US8450354B2, “Substituted imidazo[1,2-b]pyridazine derivatives, pharmaceutical compositions, and methods of use as β-secretase inhibitors” (High Point Pharmaceuticals, LLC, priority 2010, dated 2013).

Biological target: T1, BACE-1 enzyme (Homo sapiens, UniProt P56817)
T1 construct: purchased R & D Systems 931AS
Test: BACE Fluorescence Resonance Energy Transfer (FRET) Assay
Format: biochemical
Conditions: pH 4-4.5, 30 min pre-incubation, about 1.5 hours reaction, asterisk = mean
Method: BACE Fluorescence Resonance Energy Transfer (FRET) Assay
In the following assay, the proteolytic activity of BACE is measured by observing cleavage of a fluorescent group from a peptide substrate containing a rhodamine fluorescent donor and a quenching acceptor.
The inhibitory activity of compounds of Formula (I) may be compared to a statine derived control inhibitor STA200 (MP Biomedical Cat. #STA-200). The cleavage reaction occurs when a BACE-1 substrate (Invitrogen, Cat. #P2986) was added to a reaction mixture containing BACE-1 enzyme (R & D Systems, Cat. #931AS) and allowed to proceed for about 1.5 hours. Fluorescence, used as a marker of BACE activity, is monitored using 540 nm excitation and 585 nm emission wavelengths (Envision, Perkin Elmer).
A typical assay reaction contains BACE-1 enzyme-in assay buffer (50 mM sodium acetate, pH 4-4.5, 0.01% CHAPS (3-[(3-Cholamidopropyl)dimethylammonio]-1-propanesulfonate), 0.0125% TritonX-100, 0.006% EDTA) which is pre-incubated for 30 minutes with test compound in 7.5% DMSO. The reaction is initiated with the addition of BACE-1 substrate in assay buffer and allowed to proceed for about 1.5 hours at room temperature. Assays are conducted in black 384-well microtiter plates and scanned at room temperature using 540 nm excitation and 585 nm emission wavelengths.
In some instances, the percent inhibition at a given concentration is reported instead of the IC50.

T1 sequence (P56817 46-457 limits assumed): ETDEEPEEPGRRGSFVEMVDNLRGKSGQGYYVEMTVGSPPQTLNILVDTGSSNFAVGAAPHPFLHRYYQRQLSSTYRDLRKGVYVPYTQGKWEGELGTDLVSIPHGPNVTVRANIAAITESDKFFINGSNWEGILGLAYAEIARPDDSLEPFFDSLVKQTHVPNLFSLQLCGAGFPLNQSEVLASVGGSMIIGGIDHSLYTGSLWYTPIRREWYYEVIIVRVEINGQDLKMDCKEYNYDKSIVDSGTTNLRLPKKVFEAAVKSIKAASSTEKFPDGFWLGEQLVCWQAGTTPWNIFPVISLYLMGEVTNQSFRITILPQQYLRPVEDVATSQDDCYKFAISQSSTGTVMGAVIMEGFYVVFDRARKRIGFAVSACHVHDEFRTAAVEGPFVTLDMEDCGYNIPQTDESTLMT

SMILES | IC50 [µM]
COc1ccc2nc(C(=O)Nc3nc4cc(OCc5ccccc5)ccc4[nH]3)cn2n1 [Example 4] | 0.105
COc1ccc2nc(C(=O)Nc3nc4cc(OCc5ccc(C(F)(F)F)cc5)ccc4[nH]3)cn2n1 [Example 5] | 0.095
Cc1ccc2nc(C(=O)Nc3nc4cc(OCc5ccccc5)ccc4[nH]3)cn2n1 [Example 6] | 0.244
COCCOc1ccc2nc(C(=O)Nc3nc4cc(-c5cccc(C(F)(F)F)c5)ccc4[nH]3)cn2n1 [Example 8, 6-(2-Methoxy-ethoxy)-imidazo[1,2-b]pyridazine-2-carboxylic acid [5-(3-trifluoromethyl-phenyl)-1H-benzoimidazol-2-yl]-amide] | 0.28
CCOCCOCCOc1ccc2nc(C(=O)Nc3nc4cc(-c5cccc(C(F)(F)F)c5)ccc4[nH]3)cn2n1 [Example 11] | 0.32
CCOCCCOc1ccc2nc(C(=O)Nc3nc4cc(-c5cccc(C(F)(F)F)c5)ccc4[nH]3)cn2n1 [Example 13] | 0.368
CNCCOc1ccc2nc(C(=O)Nc3nc4cc(-c5cc(F)cc(Cl)c5)ccc4[nH]3)cn2n1 [Example 14] | 0.152
CN(C)CCOc1ccc2nc(C(=O)Nc3nc4cc(-c5cc(F)cc(Cl)c5)ccc4[nH]3)cn2n1 [Example 15] | 0.272
O=C(Nc1nc2cc(-c3cc(F)cc(Cl)c3)ccc2[nH]1)c1cn2nc(OC3CCOCC3)ccc2n1 [Example 16] | 0.289
CN(C)CCCOc1ccc2nc(C(=O)Nc3nc4cc(-c5cc(F)cc(Cl)c5)ccc4[nH]3)cn2n1 [Example 17] | 0.171
CN1CCC(Oc2ccc3nc(C(=O)Nc4nc5cc(-c6cc(F)cc(Cl)c6)ccc5[nH]4)cn3n2)CC1 [Example 18] | 0.219
O=C(Nc1nc2cc(-c3cc(F)cc(Cl)c3)ccc2[nH]1)c1cn2nc(OCCN3CCCC3)ccc2n1 [Example 19] | 0.166
CCN(CC)CCCOc1ccc2nc(C(=O)Nc3nc4cc(-c5cc(F)cc(Cl)c5)ccc4[nH]3)cn2n1 [Example 20] | 0.205
O=C(Nc1nc2cc(-c3cccc(OC(F)(F)F)c3)ccc2[nH]1)c1cn2nc(OCCN3CCCC3)ccc2n1 [Example 21] | 0.318
CCOCCOc1ccc2nc(C(=O)Nc3nc4cc(-c5cccc(C(F)(F)F)c5)ccc4[nH]3)cn2n1 [Example 22] | 0.249
CC(C)OCCOc1ccc2nc(C(=O)Nc3nc4cc(-c5cccc(C(F)(F)F)c5)ccc4[nH]3)cn2n1 [Example 23] | 0.272
CC(C)(C)NCCOc1ccc2nc(C(=O)Nc3nc4cc(-c5cccc(C(F)(F)F)c5)ccc4[nH]3)cn2n1 [Example 24] | 0.291
CC(C)NCCOc1ccc2nc(C(=O)Nc3nc4cc(-c5cccc(OC(F)(F)F)c5)ccc4[nH]3)cn2n1 [Example 28] | 0.253
CC(C)(C)NCCOc1ccc2nc(C(=O)Nc3nc4cc(-c5cccc(OC(F)(F)F)c5)ccc4[nH]3)cn2n1 [Example 30] | 0.27
O=C(Nc1nc2cc(-c3cccc(OC(F)(F)F)c3)ccc2[nH]1)c1cn2nc(OCCNC3CCCCC3)ccc2n1 [Example 33] | 0.278
O=C(Nc1nc2cc(-c3cccc(OC(F)(F)F)c3)ccc2[nH]1)c1cn2nc(OCCN3CCCCCC3)ccc2n1 [Example 34] | 0.27
CN(C)CCN(C)CCOc1ccc2nc(C(=O)Nc3nc4cc(-c5cccc(OC(F)(F)F)c5)ccc4[nH]3)cn2n1 [Example 36] | 0.332
CN(CCOc1ccc2nc(C(=O)Nc3nc4cc(-c5cccc(OC(F)(F)F)c5)ccc4[nH]3)cn2n1)c1ccccn1 [Example 37] | 0.322
CC(C)NCCOc1ccc2nc(C(=O)Nc3nc4cc(-c5cccc(C(F)(F)F)c5)ccc4[nH]3)cn2n1 [Example 38] | 0.27
O=C(Nc1nc2cc(-c3cccc(C(F)(F)F)c3)ccc2[nH]1)c1cn2nc(OCCNC3CCCCC3)ccc2n1 [Example 39] | 0.197

SMILES | IC50 [µM]
CC(C)N(CCOc1ccc2nc(C(=O)Nc3nc4cc(-c5cccc(C(F)(F)F)c5)ccc4[nH]3)cn2n1)C(C)C [Example 42] | 0.365
CN(CCOc1ccc2nc(C(=O)Nc3nc4cc(-c5cccc(C(F)(F)F)c5)ccc4[nH]3)cn2n1)c1ccccn1 [Example 44] | 0.241
CC(C)N(CCOc1ccc2nc(C(=O)Nc3nc4cc(-c5cc(F)cc(Cl)c5)ccc4[nH]3)cn2n1)C(C)C [Example 48] | 0.315
O=C(Nc1nc2cc(-c3cc(F)cc(Cl)c3)ccc2[nH]1)c1cn2nc(OCCNC3CCCCC3)ccc2n1 [Example 51] | 0.173
CC(C)(C)NCCOc1ccc2nc(C(=O)Nc3nc4cc(-c5cc(F)cc(Cl)c5)ccc4[nH]3)cn2n1 [Example 52] | 0.223
CN1CCN(CCOc2ccc3nc(C(=O)Nc4nc5cc(-c6cc(F)cc(Cl)c6)ccc5[nH]4)cn3n2)CC1 [Example 55] | 0.212
CN(C)CCOCCOc1ccc2nc(C(=O)Nc3nc4cc(-c5cccc(OC(F)(F)F)c5)ccc4[nH]3)cn2n1 [Example 56] | 0.176
CN(C)CCOCCOc1ccc2nc(C(=O)Nc3nc4cc(-c5cccc(C(F)(F)F)c5)ccc4[nH]3)cn2n1 [Example 59] | 0.194
NCCOc1ccc2nc(C(=O)Nc3nc4cc(-c5cccc(C(F)(F)F)c5)ccc4[nH]3)cn2n1 [Example 60] | 0.14
COCCOc1ccc2nc(C(=O)Nc3nc4cc(-c5ccc(Cl)c(C(F)(F)F)c5)ccc4[nH]3)cn2n1 [Example 62] | 0.335
CN(C)CCOc1ccc2nc(C(=O)Nc3nc4cc(-c5ccc(Cl)c(C(F)(F)F)c5)ccc4[nH]3)cn2n1 [Example 63] | 0.361
O=C(Nc1nc2cc(-c3cccc(C(F)(F)F)c3)ccc2[nH]1)c1cn2nc(N3CCOCC3)ccc2n1 [Example 65] | 0.238
CN1CCC[C@H]1COc1ccc2nc(C(=O)Nc3nc4cc(-c5cc(F)cc(Cl)c5)ccc4[nH]3)cn2n1 [Example 68] | 0.344
CNCCOc1ccc2nc(C(=O)Nc3nc4cc(-c5cccc(C(F)(F)F)c5)ccc4[nH]3)cn2n1 [Example 70] | 0.381
O=C(Nc1nc2cc(-c3cccc(C(F)(F)F)c3)ccc2[nH]1)c1cn2nc(OCCN3CCCC3)ccc2n1 [Example 71] | 0.327
CN(C)CCCOc1ccc2nc(C(=O)Nc3nc4cc(-c5cccc(C(F)(F)F)c5)ccc4[nH]3)cn2n1 [Example 72] | 0.216
C[C@@H](N)COc1ccc2nc(C(=O)Nc3nc4cc(-c5cccc(C(F)(F)F)c5)ccc4[nH]3)cn2n1 [Example 73] | 0.346
C[C@H](N)COc1ccc2nc(C(=O)Nc3nc4cc(-c5cccc(C(F)(F)F)c5)ccc4[nH]3)cn2n1 [Example 74] | 0.219
O=C(Nc1nc2cc(-c3cccc(C(F)(F)F)c3)ccc2[nH]1)c1cn2nc(O[C@H]3CCCNC3)ccc2n1 [Example 75] | 0.36
N[C@@H]1CCN(c2ccc3nc(C(=O)Nc4nc5cc(-c6cccc(C(F)(F)F)c6)ccc5[nH]4)cn3n2)C1 [Example 76] | 0.23
N[C@H]1CCN(c2ccc3nc(C(=O)Nc4nc5cc(-c6cccc(C(F)(F)F)c6)ccc5[nH]4)cn3n2)C1 [Example 77] | 0.242
O=C(Nc1nc2cc(-c3cccc(C(F)(F)F)c3)ccc2[nH]1)c1cn2nc(N[C@H]3CCNC3)ccc2n1 [Example 78] | 0.337
O=C(Nc1nc2cc(-c3cccc(C(F)(F)F)c3)ccc2[nH]1)c1cn2nc(N3CCNCC3)ccc2n1 [Example 80] | 0.2
CC1CCC(c2ccc3[nH]c(NC(=O)c4cn5nc(N6CCOCC6)ccc5n4)nc3c2)CC1 (centres unmarked) [Example 81] | 0.393
CC1(C)CCC(c2ccc3[nH]c(NC(=O)c4cn5nc(C6CCNCC6)ccc5n4)nc3c2)CC1 [Example 82] | 1.07
